Test results taken from patent US11840528B2 (Hoffmann-La Roche Inc., priority 2018, dated 2023).

What was measured:
h-GABA-A α5β3γ2 [1] = target: T1, h-GABA-A α5β3γ2 (Homo sapiens, UniProt P18507+P31644); assay: Two-electrode voltage clamp electrophysiology in Xenopus laevis oocytes expressing GABAA receptors, modulation of GABA EC20 current; type: cell-based; design: host or cells: Xenopus laevis oocytes micro-injected with RNA transcripts of the subunits; conditions: Table 1; for Efficacy (GABA) %: % modulation of GABA EC20 = 100*(Fold increase-1); for Fold increase h-GABA-A α5β3γ2 oocyte: test compound at approx. 30 fold its Ki, GABA at EC20
Summary of the method: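 Human α5β3γ2 GABAA receptors were expressed in Xenopus oocytes by RNA injection, with γ2 RNA 5–10-fold higher, and recorded 3–5 days later by two-electrode voltage clamp at −80 mV at room temperature. The test compound, at about 30× its Ki, was co-applied during a second GABA EC20 pulse. Efficacy is the extremum of the point-by-point ratio to the first response, expressed as 100*(Fold increase−1).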

h-GABA-A α5β3γ2 [2] = target: T1, h-GABA-A α5β3γ2; assay: [3H]flumazenil competition binding assay, membranes of HEK293 cells expressing GABAA receptors; conditions: displacement of [3H]-Flumazenil 0.5 nM, HEK293 cells expressing human receptors, mean of two determinations; Table 1
Summary of the method: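 Membranes from HEK293 cells transiently expressing human α5β3γ2 GABAA receptors, in Krebs-tris buffer pH 7.5, competed against [3H]flumazenil for 1 hour at 4° C to equilibrium. Bound radioactivity collected on GF/C filters and counted by liquid scintillation; Ki values are means of two determinations.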

| Efficacy (GABA) % (h-GABA-A α5β3γ2 [1]) | Fold increase h-GABA-A α5β3γ2 oocyte (h-GABA-A α5β3γ2 [1]) | Ki (h-GABA-A α5β3γ2 [2]) | Compound |
| --- | --- | --- | --- |
| 106% | 2.06 | 8.6 nM | Cc1ccc(-c2noc(C)c2Cn2ncc(N3CCC3)cc2=O)cn1 [Example 97, 5-(azetidin-1-yl)-2-[[5-methyl-3-(6-methyl-3-pyridyl)isoxazol-4-yl]methyl]pyridazin-3-one] |
| 172% | 2.72 | 81.2 nM | CO[C@@H]1COC2(C1)CN(c1cnn(Cc3c(-c4ccc(C)nc4)noc3C)c(=O)c1)C2 [Example 133, 5-[(7S)-7-methoxy-5-oxa-2-azaspiro[3.4]octan-2-yl]-2-[[5-methyl-3-(6-methyl-3-pyridyl)isoxazol-4-yl]methyl]pyridazin-3-one] |
| 153% | 2.53 | 7.3 nM | Cc1ccc(-c2noc(C)c2Cn2ncc(N3CC(Oc4cccc(F)c4)C3)cc2=O)cn1 [Example 127, 5-[3-(3-fluorophenoxy)azetidin-1-yl]-2-[[5-methyl-3-(6-methyl-3-pyridyl)isoxazol-4-yl]methyl]pyridazin-3-one] |
| 159% | 2.59 | 17.6 nM | Cc1onc(-c2ccc(Cl)nc2)c1Cn1ncc(N2CCC3(CC2)CC(F)CCO3)cc1=O (single isomer, unassigned) [Example 331] |
| 167% | 2.67 | 25.6 nM | Cc1ccc(-c2nocc2Cn2ncc(N3CCO[C@H](C)C3)cc2=O)cn1 [Example 92, 5-[(2R)-2-methylmorpholin-4-yl]-2-[[3-(6-methyl-3-pyridyl)isoxazol-4-yl]methyl]pyridazin-3-one] |
| 95% | 1.95 | 7.2 nM | Cc1ccc(-c2noc(C)c2Cn2ncc(N3CC4(C3)CC(F)(F)CO4)cc2=O)cn1 [Example 193, 5-(7,7-difluoro-5-oxa-2-azaspiro[3.4]octan-2-yl)-2-[[5-methyl-3-(6-methyl-3-pyridyl)isoxazol-4-yl]methyl]pyridazin-3-one] |
| 92% | 1.92 | 64.6 nM | CNc1cnn(Cc2c(-c3ccc(C)nc3)noc2C)c(=O)c1 [Example 78, 2-((5-methyl-3-(6-methylpyridin-3-yl)isoxazol-4-yl)methyl)-5-(methylamino)pyridazin-3(2H)-one] |
| 95% | 1.95 | 13 nM | Cc1ccc(-c2noc(C)c2Cn2ncc(N3CCC4(CCOCC4)CC3)cc2=O)cn1 [Example 226, 2-((5-methyl-3-(6-methylpyridin-3-yl)isoxazol-4-yl)methyl)-5-(3-oxa-9-azaspiro[5.5]undecan-9-yl)pyridazin-3(2H)-one] |
| 133% | 2.33 | 8.6 nM | COc1ccc(-c2cnn(Cc3c(-c4ccc(C)nc4)noc3C)c(=O)c2)cc1F [Example 80, 5-(3-fluoro-4-methoxyphenyl)-2-((5-methyl-3-(6-methylpyridin-3-yl)isoxazol-4-yl)methyl)pyridazin-3(2H)-one] |
| 158% | 2.58 | 2.7 nM | Cc1ccc(-c2noc(C)c2Cn2ncc(N3CC[C@@H](C)C3)cc2=O)cn1 [Example 178, 2-[[5-methyl-3-(6-methyl-3-pyridyl)isoxazol-4-yl]methyl]-5-[(3R)-3-methylpyrrolidin-1-yl]pyridazin-3-one] |
| 145% | 2.45 | 13.5 nM | Cc1ccc(-c2noc(C)c2Cn2ncc(N3CCN(CC(F)(F)F)CC3)cc2=O)cn1 [Example 31, 2-[[5-methyl-3-(6-methyl-3-pyridyl)isoxazol-4-yl]methyl]-5-[4-(2,2,2-trifluoroethyl)piperazin-1-yl]pyridazin-3-one] |
| 86% | 1.86 | 13.1 nM | Cc1ncc(-c2noc(C)c2Cn2ncc(N(C)C)cc2=O)cc1F [Example 102, 5-(dimethylamino)-2-[[3-(5-fluoro-6-methyl-3-pyridyl)-5-methyl-isoxazol-4-yl]methyl]pyridazin-3-one] |
| 125% | 2.25 | 1.6 nM | Cc1ccc(-c2noc(C)c2Cn2ncc(N3C[C@@H](C)N[C@@H](C)C3)cc2=O)cn1 [Example 93, 5-[(3R,5S)-3,5-dimethylpiperazin-1-yl]-2-[[5-methyl-3-(6-methyl-3-pyridyl)isoxazol-4-yl]methyl]pyridazin-3-one] |
| 165% | 2.65 | 11.4 nM | Cc1ccc(-c2noc(C)c2Cn2ncc(-c3ccnc(N4CCNCC4)c3)cc2=O)cn1 [Example 163, 2-((5-methyl-3-(6-methylpyridin-3-yl)isoxazol-4-yl)methyl)-5-(2-(piperazin-1-yl)pyridin-4-yl)pyridazin-3(2H)-one] |
| 118% | 2.18 | 41.6 nM | COC1CN(c2cnn(Cc3c(-c4ccc(Cl)nc4)noc3C)c(=O)c2)C1 [Example 212, 2-((3-(6-chloropyridin-3-yl)-5-methylisoxazol-4-yl)methyl)-5-(3-methoxyazetidin-1-yl)pyridazin-3(2H)-one] |
| 111% | 2.11 | 2.2 nM | CCOC1CN(c2cnn(Cc3c(-c4ccc(C)nn4)noc3C)c(=O)c2)C1 [Example 170, 5-(3-ethoxyazetidin-1-yl)-2-[[5-methyl-3-(6-methylpyridazin-3-yl)isoxazol-4-yl]methyl]pyridazin-3-one] |
| 80% | 1.8 | 3 nM | Cc1ccc(-c2noc(C)c2Cn2ncc(N3CC4(C[C@@H](OC(F)F)CO4)C3)cc2=O)nn1 [Example 242, 5-[(7R)-7-(difluoromethoxy)-5-oxa-2-azaspiro[3.4]octan-2-yl]-2-[[5-methyl-3-(6-methylpyridazin-3-yl)isoxazol-4-yl]methyl]pyridazin-3-one] |
| 131% | 2.31 | 2 nM | CO[C@H]1CN(c2cnn(Cc3c(-c4ccc(C)nc4)noc3C)c(=O)c2)[C@H]1C [Example 197, 5-[(2S,3S)-3-methoxy-2-methyl-azetidin-1-yl]-2-[[5-methyl-3-(6-methyl-3-pyridyl)isoxazol-4-yl]methyl]pyridazin-3-one] |
| 133% | 2.33 | 21.6 nM | CCn1cc(-c2cnn(Cc3c(-c4ccc(C)nc4)noc3C)c(=O)c2)cn1 [Example 155, 5-(1-ethyl-1H-pyrazol-4-yl)-2-((5-methyl-3-(6-methylpyridin-3-yl)isoxazol-4-yl)methyl)pyridazin-3(2H)-one] |

| Compound | Efficacy (GABA) % (h-GABA-A α5β3γ2 [1]) | Fold increase h-GABA-A α5β3γ2 oocyte (h-GABA-A α5β3γ2 [1]) | Ki (h-GABA-A α5β3γ2 [2]) |
| --- | --- | --- | --- |
| Cc1ccc(-c2noc(C)c2Cn2ncc(N3CC(OC4CCC4)C3)cc2=O)nn1 [Example 238, 5-[3-(cyclobutoxy)azetidin-1-yl]-2-[[5-methyl-3-(6-methylpyridazin-3-yl)isoxazol-4-yl]methyl]pyridazin-3-one] | 128% | 2.28 | 6.8 nM |
